In US20130178475A1, “sGC STIMULATORS” (IRONWOOD PHARMACEUTICALS, INC., priority 2010, published 2013):

Target: T1, soluble guanylate cyclase (sGC) (Homo sapiens, UniProt Q02108+Q02153)
T1 construct: endogenously expressing soluble guanylate cyclase (sGC); endogenous in cells; host or cells: HEK293
T1 sequence (Q02153 1-619): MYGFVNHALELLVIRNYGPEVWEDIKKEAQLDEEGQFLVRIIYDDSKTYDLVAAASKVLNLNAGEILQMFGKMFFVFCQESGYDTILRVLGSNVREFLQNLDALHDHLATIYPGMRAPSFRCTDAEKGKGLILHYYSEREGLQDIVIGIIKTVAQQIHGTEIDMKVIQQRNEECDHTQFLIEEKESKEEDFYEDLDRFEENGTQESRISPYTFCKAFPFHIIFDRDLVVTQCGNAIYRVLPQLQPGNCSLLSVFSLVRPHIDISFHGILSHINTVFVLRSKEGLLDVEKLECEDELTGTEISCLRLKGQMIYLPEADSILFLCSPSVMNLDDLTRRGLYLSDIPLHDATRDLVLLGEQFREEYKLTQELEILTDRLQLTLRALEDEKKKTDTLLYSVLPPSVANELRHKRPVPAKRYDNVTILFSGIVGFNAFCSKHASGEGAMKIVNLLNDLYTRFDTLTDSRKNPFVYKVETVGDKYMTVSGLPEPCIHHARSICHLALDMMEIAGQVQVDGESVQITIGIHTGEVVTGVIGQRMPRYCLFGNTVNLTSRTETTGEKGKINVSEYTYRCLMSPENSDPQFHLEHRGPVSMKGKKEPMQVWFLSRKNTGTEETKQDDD
T1 sequence (Q02108 1-690): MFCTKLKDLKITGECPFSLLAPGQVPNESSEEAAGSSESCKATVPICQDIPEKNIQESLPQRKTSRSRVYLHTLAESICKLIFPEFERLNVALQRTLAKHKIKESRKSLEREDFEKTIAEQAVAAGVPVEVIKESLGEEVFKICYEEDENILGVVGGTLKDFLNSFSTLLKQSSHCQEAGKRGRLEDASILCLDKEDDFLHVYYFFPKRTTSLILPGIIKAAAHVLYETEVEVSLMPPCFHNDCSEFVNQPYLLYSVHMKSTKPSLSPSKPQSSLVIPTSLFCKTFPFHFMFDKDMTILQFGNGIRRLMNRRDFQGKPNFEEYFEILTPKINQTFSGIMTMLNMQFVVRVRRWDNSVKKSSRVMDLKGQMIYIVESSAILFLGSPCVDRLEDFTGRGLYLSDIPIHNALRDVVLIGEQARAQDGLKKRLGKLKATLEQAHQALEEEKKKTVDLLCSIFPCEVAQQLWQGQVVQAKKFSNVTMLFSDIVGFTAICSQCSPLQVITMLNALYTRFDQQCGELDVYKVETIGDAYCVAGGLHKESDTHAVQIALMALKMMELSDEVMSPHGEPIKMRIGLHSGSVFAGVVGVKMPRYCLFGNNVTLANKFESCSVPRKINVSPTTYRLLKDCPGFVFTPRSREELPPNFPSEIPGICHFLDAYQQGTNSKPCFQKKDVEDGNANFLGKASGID
Assay: sGC-HEK-cGMP assay
Type: cell-based
Details: HEK293 cells, 10 min incubation, intracellular cGMP by LC/MS; for Increase in cGMP Concentration Tested at 10 μM in HEK Assay: test compound 10 μM; for Increase in cGMP Concentration Tested at 30 μM in HEK Assay: test compound 30 μM
Description: Human embryonic kidney cells (HEK293), endogenously expressing soluble guanylate cyclase (sGC), were used to evaluate the activity of test compounds. Compounds stimulating the sGC receptor should cause an increase in the intracellular concentration of cGMP. […] Cells were then incubated for 15 minutes at 37° C. with 0.5 mM 3-isobutyl-1-methylxanthine (2004). Test article was then added to the assay mixture (2 μL) and incubated at 37° C. for 10 minutes. After the 10 minute incubation, the assay mixture was aspirated and 0.1M HCl (2004) was added to the cells. The plate was incubated at 4° C. for 30 minutes in the 0.1M HCl to stop the reaction and lyse the cells. The plates were then centrifuged at 1,200 g for 5 minutes at room temperature. Supernatants were collected and transferred to a new flat bottom 96 well plate for analysis. Vehicle controls were carried out using DMSO (1%). A known sGC stimulator, BAY 41-2272, was used as the positive control.
Samples were diluted with an equal volume of 1 M Ammonium Acetate (pH 7) to neutralize samples for better chromatography. A 2×cGMP standard curve was prepared in 0.1 M HCl and then diluted with an equal volume of 1 M Ammonium Acetate, with the following final concentrations in nM: 1024, 512, 256, 128, 64, 32, 16, 8, 4, 2, 1.
cGMP concentrations were determined from each sample using the LC/MS conditions (Table 2 below) and calculated standard curve. EC50 values were calculated from concentration-response curves generated with GraphPad Prism Software.

Row | Structure (SMILES) | Increase in cGMP Concentration Tested at 10 μM in HEK Assay | Increase in cGMP Concentration Tested at 30 μM in HEK Assay
1 | O=S(=O)(c1ccccc1)N1CCc2c(c(-c3ncccn3)nn2Cc2ccccc2F)C1 [Compound I-53, 1-(2-fluorobenzyl)-5-(phenylsulfonyl)-3-(pyrimidin-2-yl)-4,5,6,7-tetrahydro-1H-pyrazolo[4,3-c]pyridine] | A (A represents no increase or an increase ranging from more than 0 fold to less than 5 fold) | A (A represents no increase or an increase ranging from more than 0 fold to less than 5 fold)
2 | Nc1nc(-c2nn(Cc3ccccc3F)c3c2CCC3)nc(N)c1N [Compound I-35] | A (A represents no increase or an increase ranging from more than 0 fold to less than 5 fold) | A (A represents no increase or an increase ranging from more than 0 fold to less than 5 fold)
3 | COc1cccc(C(=O)N2CCc3c(c(-c4ncccn4)nn3Cc3ccccc3F)C2)c1 [Compound I-58] | A (A represents no increase or an increase ranging from more than 0 fold to less than 5 fold) | 
4 | Fc1ccccc1Cn1nc(-c2cccnc2)c2c1CCCC2 [Compound I-48, 1-(2-fluorobenzyl)-3-(pyridin-3-yl)-4,5,6,7-tetrahydro-1H-indazole] | A (A represents no increase or an increase ranging from more than 0 fold to less than 5 fold) | A (A represents no increase or an increase ranging from more than 0 fold to less than 5 fold)
5 | CC1(C)C=Cc2c1c(-c1nccc(N)n1)nn2Cc1ccccc1F [Compound I-28] | B (B represents an increase ranging from 5 fold to less than 10 fold) | C (C represents an increase ranging from 10 fold to less than 20 fold)
6 | Fc1ccccc1Cn1nc(-c2ncccn2)c2c1CCCCC2 [Compound I-18] | B (B represents an increase ranging from 5 fold to less than 10 fold) | C (C represents an increase ranging from 10 fold to less than 20 fold)
7 | Fc1ccccc1Cn1nc(-c2ccncc2)c2c1CCCC2 [Compound I-49, 1-(2-fluorobenzyl)-3-(pyridin-4-yl)-4,5,6,7-tetrahydro-1H-indazole] | A (A represents no increase or an increase ranging from more than 0 fold to less than 5 fold) | A (A represents no increase or an increase ranging from more than 0 fold to less than 5 fold)
8 | CC1(C)CC(=O)c2c(-c3ncccn3)nn(Cc3ccccc3F)c2C1 [Compound I-20] | A (A represents no increase or an increase ranging from more than 0 fold to less than 5 fold) | A (A represents no increase or an increase ranging from more than 0 fold to less than 5 fold)
9 | COC(=O)N(Cc1ccccc1F)c1c(N)nc(-c2nn(Cc3ccccc3F)c3c2CCCC3)nc1NCc1ccccc1F [Compound I-24] | A (A represents no increase or an increase ranging from more than 0 fold to less than 5 fold) | A (A represents no increase or an increase ranging from more than 0 fold to less than 5 fold)
10 | Nc1nc(N)nc(-c2nn(Cc3ccccc3F)c3c2CCC3)n1 [Compound I-4] | A (A represents no increase or an increase ranging from more than 0 fold to less than 5 fold) | A (A represents no increase or an increase ranging from more than 0 fold to less than 5 fold)
11 | COC(=O)N(Cc1ccccc1F)c1c(N)nc(-c2nn(Cc3ccccc3F)c3c2CCCC3)nc1N [Compound I-23] | C (C represents an increase ranging from 10 fold to less than 20 fold) | C (C represents an increase ranging from 10 fold to less than 20 fold)
12 | CC1(C)C=Cc2c(-c3ncccn3)nn(Cc3ccccc3F)c2C1 [Compound I-33] | A (A represents no increase or an increase ranging from more than 0 fold to less than 5 fold) | A (A represents no increase or an increase ranging from more than 0 fold to less than 5 fold)
13 | CC1(C)Cc2c(c(-c3ncccn3)nn2Cc2ccccc2F)C(O)C1 (stereo not shown) [Compound I-32] | A (A represents no increase or an increase ranging from more than 0 fold to less than 5 fold) | A (A represents no increase or an increase ranging from more than 0 fold to less than 5 fold)
14 | O=S1(=O)CCc2c(c(-c3ncccn3)nn2Cc2ccccc2F)C1 [Compound I-19] | A (A represents no increase or an increase ranging from more than 0 fold to less than 5 fold) | A (A represents no increase or an increase ranging from more than 0 fold to less than 5 fold)
15 | Nc1nc(-c2nn(Cc3ccccc3F)c3c2CCC3)nc(N)c1/N=N/c1ccccc1 [Compound I-34] | A (A represents no increase or an increase ranging from more than 0 fold to less than 5 fold) | A (A represents no increase or an increase ranging from more than 0 fold to less than 5 fold)
16 | O=C(c1cccnc1)N1CCc2c(c(-c3ncccn3)nn2Cc2ccccc2F)C1 [Compound I-54] | A (A represents no increase or an increase ranging from more than 0 fold to less than 5 fold) | A (A represents no increase or an increase ranging from more than 0 fold to less than 5 fold)
17 | Nc1ccnc(-c2nn(Cc3ccccc3F)c3c2C2CCC3C2)n1 (stereo not shown) [Compound I-31] | A (A represents no increase or an increase ranging from more than 0 fold to less than 5 fold) | A (A represents no increase or an increase ranging from more than 0 fold to less than 5 fold)
18 | Fc1ccccc1Cn1nc(-c2ncccn2)c2c1CCC2 [Compound I-2] | C (C represents an increase ranging from 10 fold to less than 20 fold) | D (D represents an increase ranging from 20 fold to less than 50 fold)
19 | N#Cc1ccccc1Cn1nc(-c2ncccn2)c2c1CCCC2 [Compound I-8] | C (C represents an increase ranging from 10 fold to less than 20 fold) | D (D represents an increase ranging from 20 fold to less than 50 fold)
